Reference: patent US20250250647A1, “STABLE CELL CLONES HARBORING REPLICATING SARS-COV-2 RNA” (priority 2021, published 2025)

System: SARS-CoV-2-Rep-NanoLuc-Neo-Nsp1^K164A/H165A replicon
Assay type: cell-based
Details: read-out: IC50, mean over stable replicon clones

## CC(C)C[C@H](NC(=O)OCc1ccccc1)C(=O)N[C@@H](CC1CCNC1=O)C(O)S(=O)(=O)O (stereo partly shown) [GC376]
  IC50: 9.3 µM
